Values after ≈ are worked out from the molar mass of the structure shown.
Legend:
L-929 cells (ATCC CCL-1) = experiment: Minimal Essential Media (MEM) Elution cytotoxicity test; format: cell-based; settings: Table 9A
How it was run: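 L-929 cells (ATCC CCL-1) were seeded in multiwell plates and grown to roughly 80% confluence. Test article dilutions (1:2, 1:4, 1:8, 1:16) and control extracts were applied in triplicate and incubated 48±3 hours at 37±1° C. in 5±1% CO2. Wells were scored microscopically for morphological cytotoxicity on a 0–4 scale and averaged; Pass required grade not greater than 2 per USP <87>.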

biofilms of MRSA = settings: understanding of the inventors; no own test described; cited from earlier work
biofilm formation = settings: study by Losick and co-workers (Kolodkin-Gal et al., Cell 149 (2012)); cited from earlier work
P. aeruginosa = experiment: MIC, 96-well CAMHB, 10^5 to 10^2 CFU/mL in 24 hours; format: cell-based, Pseudomonas aeruginosa; settings: Pseudomonas aeruginosa; Table 3A c2; read-out: MICs (μg/mL): P. aeruginosa
How it was run: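 Broth microdilution in CAMHB with about 5×10^5 CFU/mL inoculum, incubated 24 h at 37 °C with graded polyamine compound concentrations. Surviving CFU/mL determined by plating each well on TSA for 24 h at 37 °C; n=8 per concentration.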

P. aeruginosa biofilms [1] = experiment: MBEC, MBEC Inoculation Tray (Innovotech), to 10^2 CFU/peg in 24 hours; format: cell-based; settings: Pseudomonas aeruginosa; Table 3A c5; group head missing, probably MBEC; read-out: MICs (μg/mL): P. aeruginosa (second P. aeruginosa)
Text: To determine the MBEC of each polyamine compound, the MBEC Inoculation Tray by Innovotech, formerly known as the Calgary biofilm device, was used. Within this device, biofilms grow on the surface of polystyrene pegs, 96 of which are attached to a lid. These pegs are inserted into a flat bottom 96-well plate. In this instance, the MBEC of a molecule was defined as the concentration of compound (in μg/mL) required to reduce 10^5 or 10^6 CFU/peg (biofilm levels varied by isolate) to 10^2 CFU/peg in a 24-hour period.
Following the manufacturer's guidelines, biofilms were grown on the surface of each peg by first making a 0.5 McFarland of each isolate. The 0.5 McFarland was diluted 1:100 in CAMHB. Into each well of a flat bottom 96-well plate, 150 μL of broth were pipetted. The plate was shaken at 100 rpm for 24 hours (P. aeruginosa and A. baumannii) or 48 hours (MRSA). The pegs were then placed into a separate flat bottom 96-well plate for 10 seconds with 200 μL of phosphate buffered saline (PBS) in each well to remove nonadherent cells. The lid was then placed into a 96-well plate that contained varying concentrations of antimicrobial with 200 μL per well. The plate was incubated for 24 hours at 37° C. after which time 100 μL of broth were plated on TSA. TSA plates were incubated 24 hours at 37° C. and the number of CFU counted to calculate the CFU/peg. […]

P. aeruginosa biofilms [2] = experiment: EBEC, high number biofilms on PEEK membranes, 10^9 to 10^2 CFU/PEEK membrane in 24 hours; format: cell-based; settings: Pseudomonas aeruginosa; Table 3B c3; group head missing; read-out: MICs (μg/mL) II: P. aeruginosa
Procedure: In addition to determining the MIC and the MBEC of polyamine compounds against planktonic bacteria and low number biofilms, our group wanted to determine the efficacy of polyamine compounds against high number biofilms. To do so, biofilms were grown on the surface of polyetheretherketone (PEEK) membranes using a membrane biofilm reactor. This reactor is similar to the CDC biofilm reactor, but rather than growing biofilms on coupon surfaces, the reactor was modified to hold PEEK membranes. In short, to grow biofilms within this system, 500 mL of brain heart infusion (BHI) broth were inoculated with 1 mL of a 0.5 McFarland. The reactor was placed on a hot plate set at 34° C. and the bacteria were grown under batch conditions for 24 hours. Following this protocol, biofilms typically grow to 10^9 CFU/PEEK membrane. […] A solution of 10% BHI was then flowed through the reactor at a rate of 6.94 mL/min for an additional 24 hours. PEEK membranes were then removed and placed into 2 mL of CAMHB that contained a desired concentration of polyamine compound or antibiotic. The EBEC was defined as the concentration of antimicrobial required to reduce a biofilm from approximately 10^9 CFU/PEEK membrane to approximately 10^2 CFU/PEEK membrane in a 24-hour period.

| Compound | Results Pass/Fail (L-929 cells (ATCC CCL-1); 3.125 μg/mL) | Results Pass/Fail (L-929 cells (ATCC CCL-1); 6.25 μg/mL) | Results Pass/Fail (L-929 cells (ATCC CCL-1); 12.5 μg/mL) | Results Pass/Fail (L-929 cells (ATCC CCL-1); 25 μg/mL) | Results Pass/Fail (L-929 cells (ATCC CCL-1); 1.563 (unit not given)) | biofilm dispersal effect (comparison) (biofilms of MRSA) | other results |
| --- | --- | --- | --- | --- | --- | --- | --- |
| O=CCCCC=O [glutaraldehyde, Glutaraldehyde, reference compound] | Pass (receives a passing score (Pass) if the reactivity grade is not greater than grade 2 or a mild reactivity) | Fail (a numerical grade greater than 2 is considered a cytotoxic effect, or a failing score (Fail)) | Fail (a numerical grade greater than 2 is considered a cytotoxic effect, or a failing score (Fail)) | Fail (a numerical grade greater than 2 is considered a cytotoxic effect, or a failing score (Fail)) | Pass (receives a passing score (Pass) if the reactivity grade is not greater than grade 2 or a mild reactivity) | not seen | – |
| NCCCNCCCN [norspermidine, N-(3-aminopropyl)propane-1,3-diamine] | – | – | – | – | – | – | concentration inhibiting biofilm formation (biofilm formation): 25 µM |
| NCCCCNCCCN [spermidine] | – | – | – | – | – | – | concentration at which active (biofilm formation) (biofilm formation): ~1 mM |
| N=C(NCCCCCCNC(=N)NC(=N)Nc1ccc(Cl)cc1)NC(=N)Nc1ccc(Cl)cc1.O=C(O)[C@H](O)[C@@H](O)[C@H](O)[C@H](O)CO.O=C(O)[C@H](O)[C@@H](O)[C@H](O)[C@H](O)CO [chlorhexidine gluconate, reference compound] | Pass (receives a passing score (Pass) if the reactivity grade is not greater than grade 2 or a mild reactivity) | Pass (receives a passing score (Pass) if the reactivity grade is not greater than grade 2 or a mild reactivity) | Pass (receives a passing score (Pass) if the reactivity grade is not greater than grade 2 or a mild reactivity) | Fail (a numerical grade greater than 2 is considered a cytotoxic effect, or a failing score (Fail)) | Pass (receives a passing score (Pass) if the reactivity grade is not greater than grade 2 or a mild reactivity) | not seen | – |
| NC[C@H]1O[C@H](O[C@H]2[C@H](O)[C@@H](O[C@H]3O[C@H](CO)[C@@H](O)[C@H](N)[C@H]3O)[C@H](N)C[C@@H]2N)[C@H](N)C[C@@H]1O [Tobramycin, tobramycin, reference compound] | – | – | – | – | – | – | MIC (P. aeruginosa): 2 µg/mL (≈ 4.28 µM); MIC (P. aeruginosa biofilms [1]): 100 µg/mL (≈ 214 µM); MIC (P. aeruginosa biofilms [2]): 2000 µg/mL (≈ 4280 µM) |
| CC(C)(C)CC(C)(C)c1ccc(OCCOCC[N+](C)(C)Cc2ccccc2)cc1 [benzethonium chloride] | – | – | – | – | – | not seen | – |

Source: patent US10440955B2, “Methods comprising a biocidal polyamine” (Curza Global, LLC, priority 2013, dated 2019)
